Consider 11 compounds from ChEMBL document CHEMBL4219063, “New photodynamic molecular beacons (PMB) as potential cancer-targeted agents in PDT” (Bioorg Med Chem, 2018).

The source made the active and inactive calls. No cut-off for these calls is given here. Square brackets hold non-standard residues; d marks the D form. Peptide text beside a SMILES is read from it. * marks the point of attachment. ξ: configuration not given here. Benzoyl(4-TriPhPorphyrinyl) = O=C(c1ccc(-c2c3nc(c(-c4ccccc4)c4ccc([nH]4)c(-c4ccccc4)c4nc(c(-c5ccccc5)c5ccc2[nH]5)C=C4)C=C3)cc1)*; Pyropheophorbide(a) = C=Cc1c(C)c2cc3nc(c4c5[nH]c(cc6nc(cc1[nH]2)C(C)=C6CC)c(C)c5C(=O)C4)[C@@H](CCC(=O)*)[C@@H]3C; X2 = COc1cc(/N=N/c2cc3c4c(c2OCCCCCC(=O)*)CCCN4CCC3)c(OC)cc1/N=N/c1ccc([N+](=O)[O-])cc1; X1 = CCN(CC)c1ccc2nc3ccc(/N=N/c4ccc(N(C)CCCC(=O)*)cc4)cc3[n+](-c3ccccc3)c2c1; ξThr(3R) = C[C@@H](O)C(N)C(=O)O; AEEA = NCCOCCOCC(=O)O

In data set [1] the target is MMP14 (Homo sapiens, UniProt P50281). The data set is described as follows: Substrate activity at MMP14 (unknown origin) assessed as enzyme-mediated substrate hydrolysis at 100 umol/L after 8 hrs by UV-HPLC method relative to control. In kind it is ADME. To be noted: read-out: Drug metabolism.
Data set [2] has as its target MMP2 (Homo sapiens, UniProt P08253). The data set is described as follows: Substrate activity at MMP2 (unknown origin) assessed as enzyme-mediated substrate hydrolysis at 100 umol/L after 8 hrs by UV-HPLC method relative to control. The format is ADME. To be noted: read-out: Drug metabolism.
The nature of data set [3]: In vitro photodynamic activity in ethanol assessed as fluorescence quenching by time-correlated single photon counting method. In kind it is functional.
A short description of data set [4]: In vitro photodynamic activity in ethanol assessed as decrease in singlet oxygen production by spectrophotometry. The format is functional. More on the design: scale not given: the % may be the effect or the level left.
Data set [5] deals with Matrix metalloproteinase-14 (Mus musculus) (UniProt P53690). The data set is described as follows: Substrate activity at MT1-MMP in mouse B16F1 cells assessed as enzyme-mediated substrate cleavage at 100 uM after 24 hrs by HPLC analysis. In kind it is cell-based.
The target of data set [6] is MMP9 (Homo sapiens, UniProt P14780). The data set is described as follows: Substrate activity at MMP9 (unknown origin) assessed as enzyme-mediated substrate hydrolysis at 100 umol/L after 8 hrs by UV-HPLC method relative to control. The format is ADME. To be noted: read-out: Drug metabolism.
MMP9, sequence (P14780 whole entry): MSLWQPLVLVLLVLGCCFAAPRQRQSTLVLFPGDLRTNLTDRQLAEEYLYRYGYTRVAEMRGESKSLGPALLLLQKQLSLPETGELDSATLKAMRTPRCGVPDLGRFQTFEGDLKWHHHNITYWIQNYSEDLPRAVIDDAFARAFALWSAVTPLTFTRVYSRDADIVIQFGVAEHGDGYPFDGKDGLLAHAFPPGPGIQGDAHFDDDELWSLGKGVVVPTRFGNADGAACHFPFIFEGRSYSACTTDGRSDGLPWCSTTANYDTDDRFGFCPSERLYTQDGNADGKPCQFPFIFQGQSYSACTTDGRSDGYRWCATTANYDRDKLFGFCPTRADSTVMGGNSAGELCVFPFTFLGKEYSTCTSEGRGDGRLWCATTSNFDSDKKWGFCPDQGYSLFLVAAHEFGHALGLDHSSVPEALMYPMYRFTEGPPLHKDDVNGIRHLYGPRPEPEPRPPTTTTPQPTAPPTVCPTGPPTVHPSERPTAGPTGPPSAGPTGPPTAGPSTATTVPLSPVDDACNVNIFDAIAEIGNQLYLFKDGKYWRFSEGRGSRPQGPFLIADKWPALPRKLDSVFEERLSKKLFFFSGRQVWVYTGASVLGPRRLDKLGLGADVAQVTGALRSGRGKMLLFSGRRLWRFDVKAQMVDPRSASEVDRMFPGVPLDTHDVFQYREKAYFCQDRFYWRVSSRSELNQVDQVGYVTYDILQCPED

MMP2, sequence (P08253 whole entry): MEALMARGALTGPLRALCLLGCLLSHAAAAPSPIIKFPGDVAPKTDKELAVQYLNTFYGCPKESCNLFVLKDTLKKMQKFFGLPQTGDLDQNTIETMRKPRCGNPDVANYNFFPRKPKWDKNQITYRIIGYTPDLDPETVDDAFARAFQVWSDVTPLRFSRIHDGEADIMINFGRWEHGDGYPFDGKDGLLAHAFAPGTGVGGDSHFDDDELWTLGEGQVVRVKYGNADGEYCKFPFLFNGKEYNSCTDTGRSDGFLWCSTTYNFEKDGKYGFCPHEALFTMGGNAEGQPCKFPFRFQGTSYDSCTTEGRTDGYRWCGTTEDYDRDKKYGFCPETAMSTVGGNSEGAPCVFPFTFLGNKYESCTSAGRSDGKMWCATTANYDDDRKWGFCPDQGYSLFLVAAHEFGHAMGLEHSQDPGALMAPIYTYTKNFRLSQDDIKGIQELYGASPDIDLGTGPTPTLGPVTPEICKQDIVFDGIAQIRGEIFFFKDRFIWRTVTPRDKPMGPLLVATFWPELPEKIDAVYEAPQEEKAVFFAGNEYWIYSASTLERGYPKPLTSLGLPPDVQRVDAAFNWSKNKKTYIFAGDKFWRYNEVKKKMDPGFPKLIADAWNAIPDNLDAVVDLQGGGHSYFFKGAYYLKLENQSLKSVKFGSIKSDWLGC

Take H-GRIGFLRTAKGG-OH: the figures for the metabolised at 8 h, 100 µM in data set [1] and in data set [2] were 99% and 26%, respectively.
`CC[C@H](C)[C@H](NC(=O)[C@H](CCCNC(=N)N)NC(=O)CNC(=O)COCCOCCN)C(=O)NCC(=O)N[C@@H](Cc1ccccc1)C(=O)N[C@@H](CC(C)C)C(=O)N[C@@H](CCCNC(=N)N)C(=O)N[C@H](C(=O)N[C@@H](C)C(=O)N[C@@H](CCCCN)C(=O)NCC(=O)NCC(=O)O)[C@@H](C)O` (H-[AEEA]GRIGFLRTAKGG-OH): the metabolised at 8 h, 100 µM in data set [1] turned out to be 100%; in data set [2] it was 20%.
On to `CC[C@H](C)[C@H](NC(=O)[C@H](CCCNC(=N)N)NC(=O)CNC(=O)c1ccc(-c2c3nc(c(-c4ccccc4)c4ccc([nH]4)c(-c4ccccc4)c4nc(c(-c5ccccc5)c5ccc2[nH]5)C=C4)C=C3)cc1)C(=O)NCC(=O)N[C@@H](Cc1ccccc1)C(=O)N[C@@H](CC(C)C)C(=O)N[C@@H](CCCNC(=N)N)C(=O)N[C@H](C(=O)N[C@@H](C)C(=O)N[C@@H](CCCCNC(=O)CCCN(C)c1ccc(/N=N/c2ccc3nc4ccc(N(CC)CC)cc4[n+](-c4ccccc4)c3c2)cc1)C(=O)NCC(=O)NCC(=O)O)[C@@H](C)O` ({Benzoyl(4-TriPhPorphyrinyl)}-GRIGFLRTAK(X1)GG-OH), for which the results for the Activity in data set [3] and in data set [4] were 80% and 100%, respectively.
`CC[C@H](C)[C@H](NC(=O)[C@H](CCCNC(=N)N)NC(=O)CNC(=O)c1ccc(-c2c3nc(c(-c4ccccc4)c4ccc([nH]4)c(-c4ccccc4)c4nc(c(-c5ccccc5)c5ccc2[nH]5)C=C4)C=C3)cc1)C(=O)NCC(=O)N[C@@H](Cc1ccccc1)C(=O)N[C@@H](CC(C)C)C(=O)N[C@@H](CCCNC(=N)N)C(=O)N[C@H](C(=O)N[C@@H](C)C(=O)N[C@@H](CCCCNC(=O)CCCCCOc1c(/N=N/c2cc(OC)c(/N=N/c3ccc([N+](=O)[O-])cc3)cc2OC)cc2c3c1CCCN3CCC2)C(=O)NCC(=O)NCC(=O)O)[C@@H](C)O` ({Benzoyl(4-TriPhPorphyrinyl)}-GRIGFLRTAK(X2)GG-OH): the outcome in data set [5] was Active. Also, the Activity in data set [3] came out at 90%; in data set [4], 80%.
Consider `CC[C@H](C)[C@H](NC(=O)[C@H](CCCNC(=N)N)NC(=O)CN)C(=O)NCC(=O)N[C@@H](Cc1ccccc1)C(=O)N[C@@H](CC(C)C)C(=O)N[C@@H](CCCNC(=N)N)C(=O)N[C@H](C(=O)N[C@@H](C)C(=O)N[C@@H](CCCCNC(=O)CCCCCOc1c(/N=N/c2cc(OC)c(/N=N/c3ccc([N+](=O)[O-])cc3)cc2OC)cc2c3c1CCCN3CCC2)C(=O)NCC(=O)NCC(=O)O)[C@@H](C)O`, for which the metabolised at 8 h, 100 µM in data set [1] worked out at 31%.
Take `C=Cc1c(C)c2cc3nc(c4c5[nH]c(cc6nc(cc1[nH]2)C(C)=C6CC)c(C)c5C(=O)C4)[C@@H](CCC(=O)NCC(=O)N[C@@H](CCCNC(=N)N)C(=O)N[C@H](C(=O)NCC(=O)N[C@@H](Cc1ccccc1)C(=O)N[C@@H](CC(C)C)C(=O)N[C@@H](CCCNC(=N)N)C(=O)N[C@H](C(=O)N[C@@H](C)C(=O)N[C@@H](CCCCN)C(=O)NCC(=O)NCC(=O)O)[C@@H](C)O)[C@@H](C)CC)[C@@H]3C` ({Pyropheophorbide(a)}-GRIGFLRTAKGG-OH): the metabolised at 8 h, 100 µM in data set [6] came out at 5%.
With `C=Cc1c(C)c2cc3nc(c4c5[nH]c(cc6nc(cc1[nH]2)C(C)=C6CC)c(C)c5C(=O)C4)[C@@H](CCC(=O)NCC(=O)N[C@@H](CCCNC(=N)N)C(=O)N[C@H](C(=O)NCC(=O)N[C@@H](Cc1ccccc1)C(=O)N[C@@H](CC(C)C)C(=O)N[C@@H](CCCNC(=N)N)C(=O)N[C@H](C(=O)N[C@@H](C)C(=O)N[C@@H](CCCCNC(=O)CCCN(C)c1ccc(/N=N/c2ccc4nc5ccc(N(CC)CC)cc5[n+](-c5ccccc5)c4c2)cc1)C(=O)NCC(=O)NCC(=O)O)[C@@H](C)O)[C@@H](C)CC)[C@@H]3C` ({Pyropheophorbide(a)}-GRIGFLRTAK(X1)GG-OH), the Activity stood at 93% in data set [3] and 100% in data set [4].
As for `CC[C@H](C)[C@H](NC(=O)[C@H](CCCNC(=N)N)NC(=O)CNC(=O)COCCOCCNC(=O)c1ccc(-c2c3nc(c(-c4ccccc4)c4ccc([nH]4)c(-c4ccccc4)c4nc(c(-c5ccccc5)c5ccc2[nH]5)C=C4)C=C3)cc1)C(=O)NCC(=O)N[C@@H](Cc1ccccc1)C(=O)N[C@@H](CC(C)C)C(=O)N[C@@H](CCCNC(=N)N)C(=O)N[C@H](C(=O)N[C@@H](C)C(=O)N[C@@H](CCCCNC(=O)CCCN(C)c1ccc(/N=N/c2ccc3nc4ccc(N(CC)CC)cc4[n+](-c4ccccc4)c3c2)cc1)C(=O)NCC(=O)NCC(=O)O)[C@@H](C)O` ({Benzoyl(4-TriPhPorphyrinyl)-AEEA}-GRIGFLRTAK(X1)GG-OH), the Activity in data set [3] came out at 80%; in data set [4], 100%.
In the case of `CC[C@H](C)[C@H](NC(=O)[C@H](CCCNC(=N)N)NC(=O)CNC(=O)COCCOCCNC(=O)c1ccc(-c2c3nc(c(-c4ccccc4)c4ccc([nH]4)c(-c4ccccc4)c4nc(c(-c5ccccc5)c5ccc2[nH]5)C=C4)C=C3)cc1)C(=O)NCC(=O)N[C@@H](Cc1ccccc1)C(=O)N[C@@H](CC(C)C)C(=O)N[C@@H](CCCNC(=N)N)C(=O)N[C@H](C(=O)N[C@@H](C)C(=O)N[C@@H](CCCCN)C(=O)NCC(=O)NCC(=O)O)[C@@H](C)O` ({Benzoyl(4-TriPhPorphyrinyl)-AEEA}-GRIGFLRTAKGG-OH), the results for the metabolised at 8 h, 100 µM in data set [6] and in data set [2] were 2% and 3%, respectively.
Regarding `C=Cc1c(C)c2cc3nc(c4c5[nH]c(cc6nc(cc1[nH]2)C(C)=C6CC)c(C)c5C(=O)C4)[C@@H](CCC(=O)NCC(=O)N[C@@H](CCCNC(=N)N)C(=O)N[C@H](C(=O)NCC(=O)N[C@@H](Cc1ccccc1)C(=O)N[C@@H](CC(C)C)C(=O)N[C@@H](CCCNC(=N)N)C(=O)N[C@H](C(=O)N[C@@H](C)C(=O)N[C@@H](CCCCNC(=O)CCCCCOc1c(/N=N/c2cc(OC)c(/N=N/c4ccc([N+](=O)[O-])cc4)cc2OC)cc2c4c1CCCN4CCC2)C(=O)NCC(=O)NCC(=O)O)[C@@H](C)O)[C@@H](C)CC)[C@@H]3C` ({Pyropheophorbide(a)}-GRIGFLRTAK(X2)GG-OH), the Activity in data set [3] worked out at 88%; in data set [4] it was 77%.
For `CC[C@H](C)[C@H](NC(=O)[C@H](CCCNC(=N)N)NC(=O)CN)C(=O)NCC(=O)N[C@@H](Cc1ccccc1)C(=O)N[C@@H](CC(C)C)C(=O)N[C@@H](CCCNC(=N)N)C(=O)NC(C(=O)N[C@@H](C)C(=O)N[C@@H](CCCCNC(=O)CCCN(C)c1ccc(/N=N/c2ccc3nc4ccc(N(CC)CC)cc4[n+](-c4ccccc4)c3c2)cc1)C(=O)NCC(=O)NCC(=O)O)[C@@H](C)O` (stereo partly drawn) (H-GRIGFLR[ξThr(3R)]AK(X1)GG-OH), the figures for the metabolised at 8 h, 100 µM in data set [1] and in data set [2] were 86% and 26%, respectively.
